Assay results taken from the kinase profiling compilation of Christmann-Franck et al. (2016).
Blank lines part the entries; values can stand above or below the compound they belong to.

Tests used:
Assay in all cases: radiometric filter-binding kinase assay, Kinase HotSpot
Details in all cases: compound 0.5 µM; ATP 10 µM
CDC42BPA (human) = CDC42BPA (human) (UniProt Q5VT25)
OXSR1 (human) = OXSR1 (human) (UniProt O95747)
AKT1 (human) = AKT1 (human) (UniProt P31749)
MAP2K1 (human) = MAP2K1 (human) (UniProt Q02750)
MAP2K1 (human), sequence (Q02750 whole entry, looked up): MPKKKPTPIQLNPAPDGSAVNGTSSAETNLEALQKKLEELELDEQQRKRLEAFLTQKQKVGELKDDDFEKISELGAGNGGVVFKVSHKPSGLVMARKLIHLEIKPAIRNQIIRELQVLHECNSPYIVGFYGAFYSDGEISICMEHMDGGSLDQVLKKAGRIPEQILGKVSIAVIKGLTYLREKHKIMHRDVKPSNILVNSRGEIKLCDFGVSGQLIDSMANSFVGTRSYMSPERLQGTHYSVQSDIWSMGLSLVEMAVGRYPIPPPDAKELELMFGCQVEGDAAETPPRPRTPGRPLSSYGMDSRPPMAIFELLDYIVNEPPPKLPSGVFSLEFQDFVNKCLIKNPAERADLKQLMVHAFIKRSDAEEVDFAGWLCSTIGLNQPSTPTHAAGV

CDK5 CDK5R1 p35 (human) = CDK5 CDK5R1 p35 (human) (UniProt Q00535+Q15078)
RPS6KA1 KD1 KD2 (human) = RPS6KA1 KD1 KD2 (human) (UniProt Q15418)
RPS6KA1 KD1 KD2 (human), sequence (Q15418 whole entry, looked up): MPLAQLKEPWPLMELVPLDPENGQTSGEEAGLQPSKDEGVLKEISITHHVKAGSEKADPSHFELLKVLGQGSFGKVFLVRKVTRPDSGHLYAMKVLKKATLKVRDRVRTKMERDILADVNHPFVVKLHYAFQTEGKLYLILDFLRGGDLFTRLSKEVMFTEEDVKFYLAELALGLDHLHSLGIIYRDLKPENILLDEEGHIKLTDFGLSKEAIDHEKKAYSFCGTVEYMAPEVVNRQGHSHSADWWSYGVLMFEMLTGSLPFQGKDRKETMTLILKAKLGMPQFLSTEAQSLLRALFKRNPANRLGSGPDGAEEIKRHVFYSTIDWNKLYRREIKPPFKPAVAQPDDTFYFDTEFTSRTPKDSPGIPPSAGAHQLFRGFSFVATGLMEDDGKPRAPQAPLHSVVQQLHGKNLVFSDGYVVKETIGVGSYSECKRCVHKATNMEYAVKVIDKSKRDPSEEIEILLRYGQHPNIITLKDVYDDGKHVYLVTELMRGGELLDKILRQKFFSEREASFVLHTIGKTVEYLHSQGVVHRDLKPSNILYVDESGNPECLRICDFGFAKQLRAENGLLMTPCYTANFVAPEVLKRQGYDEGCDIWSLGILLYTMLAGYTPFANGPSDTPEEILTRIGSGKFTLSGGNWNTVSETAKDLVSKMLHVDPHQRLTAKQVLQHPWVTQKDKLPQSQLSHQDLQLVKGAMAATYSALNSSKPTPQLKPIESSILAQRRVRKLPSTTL

ALK (human) = ALK (human) (UniProt Q9UM73)
TNK2 (human) = TNK2 (human) (UniProt Q07912)
ABL2 (human) = ABL2 (human) (UniProt P42684)
SIK2 (human) = SIK2 (human) (UniProt Q9H0K1)
NEK2 (human) = NEK2 (human) (UniProt P51955)
NEK2 (human), sequence (P51955 whole entry, looked up): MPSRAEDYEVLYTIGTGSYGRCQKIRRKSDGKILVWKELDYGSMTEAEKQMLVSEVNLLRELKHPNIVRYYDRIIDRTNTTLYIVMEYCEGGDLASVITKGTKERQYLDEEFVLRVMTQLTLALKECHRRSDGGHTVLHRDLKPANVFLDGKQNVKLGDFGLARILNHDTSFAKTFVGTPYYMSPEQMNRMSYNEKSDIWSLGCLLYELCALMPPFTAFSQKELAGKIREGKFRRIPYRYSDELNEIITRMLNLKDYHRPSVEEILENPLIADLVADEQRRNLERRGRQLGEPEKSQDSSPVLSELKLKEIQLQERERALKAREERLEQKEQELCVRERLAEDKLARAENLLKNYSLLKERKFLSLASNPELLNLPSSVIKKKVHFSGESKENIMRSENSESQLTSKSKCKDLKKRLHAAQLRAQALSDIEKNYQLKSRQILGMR

IRAK1 (human) = IRAK1 (human) (UniProt P51617)
RPS6KB2 (human) = RPS6KB2 (human) (UniProt Q9UBS0)
RPS6KA4 KD2 (human) = RPS6KA4 KD2 (human) (UniProt O75676)
RPS6KA4 KD2 (human), sequence (O75676 whole entry, looked up): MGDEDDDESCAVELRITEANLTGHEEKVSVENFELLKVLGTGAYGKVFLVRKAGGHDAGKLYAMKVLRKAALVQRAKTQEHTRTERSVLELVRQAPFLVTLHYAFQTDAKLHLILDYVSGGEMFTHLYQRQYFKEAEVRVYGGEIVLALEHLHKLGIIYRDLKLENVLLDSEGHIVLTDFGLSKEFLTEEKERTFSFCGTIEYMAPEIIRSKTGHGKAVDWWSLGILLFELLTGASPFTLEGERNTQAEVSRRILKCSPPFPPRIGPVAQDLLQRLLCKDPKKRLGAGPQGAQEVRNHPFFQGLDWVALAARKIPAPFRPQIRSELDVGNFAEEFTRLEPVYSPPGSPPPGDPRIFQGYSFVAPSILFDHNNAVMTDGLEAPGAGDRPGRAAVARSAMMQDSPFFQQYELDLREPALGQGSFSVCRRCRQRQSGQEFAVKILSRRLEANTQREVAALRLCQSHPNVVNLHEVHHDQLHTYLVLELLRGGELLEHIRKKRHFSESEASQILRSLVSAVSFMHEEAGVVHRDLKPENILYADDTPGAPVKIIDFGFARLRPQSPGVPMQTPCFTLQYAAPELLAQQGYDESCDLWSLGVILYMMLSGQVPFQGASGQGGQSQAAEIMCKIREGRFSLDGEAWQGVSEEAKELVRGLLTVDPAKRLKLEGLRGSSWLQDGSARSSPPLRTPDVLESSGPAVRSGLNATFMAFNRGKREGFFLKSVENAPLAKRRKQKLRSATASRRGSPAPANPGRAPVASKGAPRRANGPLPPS

AURKA (human) = AURKA (human) (UniProt O14965)
CDC42BPB (human) = CDC42BPB (human) (UniProt Q9Y5S2)
TAOK2 (human) = TAOK2 (human) (UniProt Q9UL54)
CAMK2A (human) = CAMK2A (human) (UniProt Q9UQM7)
EPHA8 (human) = EPHA8 (human) (UniProt P29322)
SRPK3 (human) = SRPK3 (human) (UniProt Q9UPE1)
PAK7 (human) = PAK7 (human) (UniProt Q9P286)
TLK2 (human) = TLK2 (human) (UniProt Q86UE8)
WEE1 (human) = WEE1 (human) (UniProt P30291)
PLK2 (human) = PLK2 (human) (UniProt Q9NYY3)
MAPK9 (human) = MAPK9 (human) (UniProt P45984)
PRKCD (human) = PRKCD (human) (UniProt Q05655)
DMPK (human) = DMPK (human) (UniProt Q09013)
NTRK1 (human) = NTRK1 (human) (UniProt P04629)
FGFR1 (human) = FGFR1 (human) (UniProt P11362)
FGR (human) = FGR (human) (UniProt P09769)
PRKD1 (human) = PRKD1 (human) (UniProt Q15139)
DYRK1B (human) = DYRK1B (human) (UniProt Q9Y463)
GSG2 (human) = GSG2 (human) (UniProt Q8TF76)
GSG2 (human), sequence (Q8TF76 whole entry, looked up): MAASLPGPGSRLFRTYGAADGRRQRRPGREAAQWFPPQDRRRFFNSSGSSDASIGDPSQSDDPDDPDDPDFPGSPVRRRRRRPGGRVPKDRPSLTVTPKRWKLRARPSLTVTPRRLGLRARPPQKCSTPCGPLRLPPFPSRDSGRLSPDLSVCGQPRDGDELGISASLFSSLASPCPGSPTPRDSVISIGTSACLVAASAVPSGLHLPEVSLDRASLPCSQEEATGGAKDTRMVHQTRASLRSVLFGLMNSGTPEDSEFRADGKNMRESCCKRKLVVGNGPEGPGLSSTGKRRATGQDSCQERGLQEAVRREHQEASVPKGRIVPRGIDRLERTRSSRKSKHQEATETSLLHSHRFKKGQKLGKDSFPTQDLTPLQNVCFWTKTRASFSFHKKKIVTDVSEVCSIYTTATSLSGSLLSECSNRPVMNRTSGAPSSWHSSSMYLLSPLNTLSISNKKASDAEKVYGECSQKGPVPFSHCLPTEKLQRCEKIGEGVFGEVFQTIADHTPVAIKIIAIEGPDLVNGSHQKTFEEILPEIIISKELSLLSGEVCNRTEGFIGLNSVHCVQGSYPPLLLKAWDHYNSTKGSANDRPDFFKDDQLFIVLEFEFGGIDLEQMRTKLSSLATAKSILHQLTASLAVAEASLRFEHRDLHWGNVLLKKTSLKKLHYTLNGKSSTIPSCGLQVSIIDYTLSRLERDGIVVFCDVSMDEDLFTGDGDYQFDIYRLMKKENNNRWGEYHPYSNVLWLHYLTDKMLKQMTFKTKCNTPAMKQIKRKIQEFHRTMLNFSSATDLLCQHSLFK

MAPK10 (human) = MAPK10 (human) (UniProt P53779)
MYO3B (human) = MYO3B (human) (UniProt Q8WXR4)
GRK4 (human) = GRK4 (human) (UniProt P32298)
BTK (human) = BTK (human) (UniProt Q06187)
BTK (human), sequence (Q06187 whole entry, looked up): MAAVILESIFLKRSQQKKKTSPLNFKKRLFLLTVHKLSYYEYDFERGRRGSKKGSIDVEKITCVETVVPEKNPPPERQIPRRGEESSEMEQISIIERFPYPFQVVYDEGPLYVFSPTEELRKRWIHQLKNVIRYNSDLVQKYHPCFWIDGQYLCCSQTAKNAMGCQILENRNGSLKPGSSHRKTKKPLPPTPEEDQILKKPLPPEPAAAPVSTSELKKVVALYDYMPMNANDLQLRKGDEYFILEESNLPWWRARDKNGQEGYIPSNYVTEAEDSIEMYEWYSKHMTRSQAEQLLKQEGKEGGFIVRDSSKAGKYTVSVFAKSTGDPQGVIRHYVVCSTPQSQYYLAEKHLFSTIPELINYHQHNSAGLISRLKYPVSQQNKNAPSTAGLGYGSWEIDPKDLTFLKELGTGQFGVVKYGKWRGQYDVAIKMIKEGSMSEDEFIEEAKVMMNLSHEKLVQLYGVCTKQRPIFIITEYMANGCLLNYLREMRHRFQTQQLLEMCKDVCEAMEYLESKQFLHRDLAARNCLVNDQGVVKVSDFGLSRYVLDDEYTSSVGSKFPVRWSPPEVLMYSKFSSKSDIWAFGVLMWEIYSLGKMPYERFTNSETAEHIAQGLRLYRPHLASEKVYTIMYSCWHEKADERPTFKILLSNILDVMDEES

[1] = target: JAK1 JH1 catalytic (human) (UniProt P23458)
CDK4 CCND1 (human) = CDK4 CCND1 (human) (UniProt P24385+P11802)
JAK3 JH1 JH2 (human) = JAK3 JH1 JH2 (human) (UniProt P52333)
JAK3 JH1 JH2 (human), sequence (P52333 whole entry, looked up): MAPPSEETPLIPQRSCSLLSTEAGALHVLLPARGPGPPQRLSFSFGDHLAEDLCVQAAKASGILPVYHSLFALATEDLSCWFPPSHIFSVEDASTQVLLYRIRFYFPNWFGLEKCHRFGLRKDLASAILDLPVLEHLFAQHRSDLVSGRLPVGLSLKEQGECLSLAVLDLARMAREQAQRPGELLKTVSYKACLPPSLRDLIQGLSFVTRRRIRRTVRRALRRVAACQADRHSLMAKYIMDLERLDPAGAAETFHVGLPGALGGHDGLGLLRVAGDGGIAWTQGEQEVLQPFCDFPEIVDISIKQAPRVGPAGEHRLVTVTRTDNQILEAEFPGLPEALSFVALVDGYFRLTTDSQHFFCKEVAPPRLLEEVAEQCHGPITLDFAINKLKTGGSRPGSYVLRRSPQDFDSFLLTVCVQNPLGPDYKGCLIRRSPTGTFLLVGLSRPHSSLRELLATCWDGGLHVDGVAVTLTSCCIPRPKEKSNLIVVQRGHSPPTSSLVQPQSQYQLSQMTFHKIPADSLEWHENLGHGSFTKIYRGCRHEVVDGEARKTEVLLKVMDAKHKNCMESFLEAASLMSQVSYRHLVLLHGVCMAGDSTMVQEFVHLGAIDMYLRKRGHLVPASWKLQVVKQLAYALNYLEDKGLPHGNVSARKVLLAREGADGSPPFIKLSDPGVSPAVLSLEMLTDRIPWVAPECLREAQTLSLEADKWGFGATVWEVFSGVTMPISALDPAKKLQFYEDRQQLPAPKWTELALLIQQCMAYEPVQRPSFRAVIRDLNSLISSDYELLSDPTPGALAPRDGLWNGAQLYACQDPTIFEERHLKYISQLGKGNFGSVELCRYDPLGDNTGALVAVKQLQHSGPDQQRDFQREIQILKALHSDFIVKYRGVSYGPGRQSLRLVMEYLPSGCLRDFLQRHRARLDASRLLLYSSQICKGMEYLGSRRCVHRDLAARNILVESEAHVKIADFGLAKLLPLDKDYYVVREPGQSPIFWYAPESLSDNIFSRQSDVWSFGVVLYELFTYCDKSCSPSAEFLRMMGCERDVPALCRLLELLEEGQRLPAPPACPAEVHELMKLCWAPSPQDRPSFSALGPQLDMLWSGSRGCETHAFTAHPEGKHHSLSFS

FGFR2 (human) = FGFR2 (human) (UniProt P21802)
EPHB2 (human) = EPHB2 (human) (UniProt P29323)

SMILES: CO[C@H]1CC2CC[C@@H](C)[C@@](O)(O2)C(=O)C(=O)N2CCCC[C@H]2C(=O)OC([C@H](C)C[C@@H]2CC[C@@H](O)[C@H](OC)C2)CC(=O)[C@H](C)/C=C(\C)[C@@H](O)[C@@H](OC)C(=O)[C@H](C)C[C@H](C)/C=C/C=C/C=C/1C (stereo partly drawn)
residual activity (CDC42BPA (human)): 95.6% | residual activity (OXSR1 (human)): 96.6% | residual activity (AKT1 (human)): 104% | residual activity (MAP2K1 (human)): 92.1% | residual activity (CDK5 CDK5R1 p35 (human)): 99.5% | residual activity (RPS6KA1 KD1 KD2 (human)): 104% | residual activity (ALK (human)): 115% | residual activity (TNK2 (human)): 98.5% | residual activity (ABL2 (human)): 94.2% | residual activity (SIK2 (human)): 94.3% | residual activity (NEK2 (human)): 107% | residual activity (IRAK1 (human)): 118% | residual activity (RPS6KB2 (human)): 95.4% | residual activity (RPS6KA4 KD2 (human)): 91.8% | residual activity (AURKA (human)): 81.5% | residual activity (CDC42BPB (human)): 103% | residual activity (TAOK2 (human)): 97.6% | residual activity (CAMK2A (human)): 105% | residual activity (EPHA8 (human)): 92.7% | residual activity (SRPK3 (human)): 97.2% | residual activity (PAK7 (human)): 106% | residual activity (TLK2 (human)): 94.4% | residual activity (WEE1 (human)): 93.3% | residual activity (PLK2 (human)): 105% | residual activity (MAPK9 (human)): 98.4% | residual activity (PRKCD (human)): 102% | residual activity (DMPK (human)): 109% | residual activity (NTRK1 (human)): 98.4% | residual activity (FGFR1 (human)): 89.4% | residual activity (FGR (human)): 94.5% | residual activity (PRKD1 (human)): 98.2% | residual activity (DYRK1B (human)): 108% | residual activity (GSG2 (human)): 103% | residual activity (MAPK10 (human)): 95.9% | residual activity (MYO3B (human)): 106% | residual activity (GRK4 (human)): 96.1% | residual activity (BTK (human)): 101% | residual activity [1]: 103% | residual activity (CDK4 CCND1 (human)): 115% | residual activity (JAK3 JH1 JH2 (human)): 92.4% | residual activity (FGFR2 (human)): 110% | residual activity (EPHB2 (human)): 114%

SMILES: CNC(=O)c1cc(Oc2ccc(NC(=O)Nc3ccc(Cl)c(C(F)(F)F)c3)cc2)ccn1
residual activity (CDC42BPA (human)): 85.2% | residual activity (OXSR1 (human)): 103% | residual activity (AKT1 (human)): 96.2% | residual activity (MAP2K1 (human)): 102% | residual activity (CDK5 CDK5R1 p35 (human)): 99.9% | residual activity (RPS6KA1 KD1 KD2 (human)): 101% | residual activity (ALK (human)): 97.3% | residual activity (TNK2 (human)): 97.6% | residual activity (ABL2 (human)): 99.4% | residual activity (SIK2 (human)): 102% | residual activity (NEK2 (human)): 99.3% | residual activity (IRAK1 (human)): 101% | residual activity (RPS6KB2 (human)): 103% | residual activity (RPS6KA4 KD2 (human)): 97.7% | residual activity (AURKA (human)): 103% | residual activity (CDC42BPB (human)): 102% | residual activity (TAOK2 (human)): 36.9% | residual activity (CAMK2A (human)): 95.3% | residual activity (EPHA8 (human)): 94.5% | residual activity (SRPK3 (human)): 88.4% | residual activity (PAK7 (human)): 95.9% | residual activity (TLK2 (human)): 84.8% | residual activity (WEE1 (human)): 103% | residual activity (PLK2 (human)): 101% | residual activity (MAPK9 (human)): 94.8% | residual activity (PRKCD (human)): 104% | residual activity (DMPK (human)): 93.2% | residual activity (NTRK1 (human)): 76.1% | residual activity (FGFR1 (human)): 90.9% | residual activity (FGR (human)): 88.7% | residual activity (PRKD1 (human)): 99.7% | residual activity (DYRK1B (human)): 93.2% | residual activity (GSG2 (human)): 99.3% | residual activity (MAPK10 (human)): 94.2% | residual activity (MYO3B (human)): 85.6% | residual activity (GRK4 (human)): 103% | residual activity (BTK (human)): 102% | residual activity [1]: 110% | residual activity (CDK4 CCND1 (human)): 96.2% | residual activity (JAK3 JH1 JH2 (human)): 99.4% | residual activity (FGFR2 (human)): 72.7% | residual activity (EPHB2 (human)): 93.2%

residual activity (CDC42BPA (human)): 105% | residual activity (OXSR1 (human)): 116% | residual activity (AKT1 (human)): 98.8% | residual activity (MAP2K1 (human)): 89.3% | residual activity (CDK5 CDK5R1 p35 (human)): 95.8% | residual activity (RPS6KA1 KD1 KD2 (human)): 54.4% | residual activity (ALK (human)): 77.7% | residual activity (TNK2 (human)): 65.4% | residual activity (ABL2 (human)): 73.2% | residual activity (SIK2 (human)): 86% | residual activity (NEK2 (human)): 50.8% | residual activity (IRAK1 (human)): 57.7% | residual activity (RPS6KB2 (human)): 98.4% | residual activity (RPS6KA4 KD2 (human)): 109% | residual activity (AURKA (human)): 27.6% | residual activity (CDC42BPB (human)): 113% | residual activity (TAOK2 (human)): 21.9% | residual activity (CAMK2A (human)): 73.8% | residual activity (EPHA8 (human)): 91.7% | residual activity (SRPK3 (human)): 84.8% | residual activity (PAK7 (human)): 97.1% | residual activity (TLK2 (human)): 95.8% | residual activity (WEE1 (human)): 81.8% | residual activity (PLK2 (human)): 96.4% | residual activity (MAPK9 (human)): 78% | residual activity (PRKCD (human)): 95.3% | residual activity (DMPK (human)): 113% | residual activity (NTRK1 (human)): 7.81% | residual activity (FGFR1 (human)): 80% | residual activity (FGR (human)): 39.2% | residual activity (PRKD1 (human)): 61.8% | residual activity (DYRK1B (human)): 98.9% | residual activity (GSG2 (human)): 102% | residual activity (MAPK10 (human)): 99% | residual activity (MYO3B (human)): 72.5% | residual activity (GRK4 (human)): 103% | residual activity (BTK (human)): 93.1% | residual activity [1]: 68% | residual activity (CDK4 CCND1 (human)): 88.5% | residual activity (JAK3 JH1 JH2 (human)): 47% | residual activity (FGFR2 (human)): 74.1% | residual activity (EPHB2 (human)): 91.8%
SMILES: Cc1[nH]c(/C=C2\C(=O)Nc3ccc(S(=O)(=O)N(C)c4cccc(Cl)c4)cc32)c(C)c1C(=O)N1CCN(C)CC1

SMILES: COc1cc2ncnc(Nc3cccc(Cl)c3)c2cc1OC
residual activity (CDC42BPA (human)): 82.2% | residual activity (OXSR1 (human)): 92% | residual activity (AKT1 (human)): 89.9% | residual activity (MAP2K1 (human)): 98.5% | residual activity (CDK5 CDK5R1 p35 (human)): 91% | residual activity (RPS6KA1 KD1 KD2 (human)): 87.3% | residual activity (ALK (human)): 91.5% | residual activity (TNK2 (human)): 28.6% | residual activity (ABL2 (human)): 52.6% | residual activity (SIK2 (human)): 98.7% | residual activity (NEK2 (human)): 88.3% | residual activity (IRAK1 (human)): 86.6% | residual activity (RPS6KB2 (human)): 105% | residual activity (RPS6KA4 KD2 (human)): 94.5% | residual activity (AURKA (human)): 93.3% | residual activity (CDC42BPB (human)): 84.9% | residual activity (TAOK2 (human)): 96.1% | residual activity (CAMK2A (human)): 98.2% | residual activity (EPHA8 (human)): 81.5% | residual activity (SRPK3 (human)): 90.1% | residual activity (PAK7 (human)): 83% | residual activity (TLK2 (human)): 93.9% | residual activity (WEE1 (human)): 92.4% | residual activity (PLK2 (human)): 102% | residual activity (MAPK9 (human)): 92.2% | residual activity (PRKCD (human)): 86.4% | residual activity (DMPK (human)): 102% | residual activity (NTRK1 (human)): 92.6% | residual activity (FGFR1 (human)): 84.9% | residual activity (FGR (human)): 75.3% | residual activity (PRKD1 (human)): 92.3% | residual activity (DYRK1B (human)): 104% | residual activity (GSG2 (human)): 84.8% | residual activity (MAPK10 (human)): 89% | residual activity (MYO3B (human)): 81.2% | residual activity (GRK4 (human)): 102% | residual activity (BTK (human)): 76.7% | residual activity [1]: 90.4% | residual activity (CDK4 CCND1 (human)): 103% | residual activity (JAK3 JH1 JH2 (human)): 91.6% | residual activity (FGFR2 (human)): 97.5% | residual activity (EPHB2 (human)): 98.1%
